Assay: xn = mol fraction of the nth substance listed
Settings: 101 kPa

C[P+](c1ccccc1)(c1ccccc1)c1ccccc1.[Br-] + OCCO
electrical conductivity (293.15 K, x1 = 0.25): 0.119 S/m
viscosity (293.15 K, x1 = 0.25): 211 mPa·s
electrical conductivity (303.15 K, x1 = 0.25): 0.153 S/m
viscosity (303.15 K, x1 = 0.25): 136 mPa·s
electrical conductivity (313.15 K, x1 = 0.25): 0.192 S/m
viscosity (313.15 K, x1 = 0.25): 89.5 mPa·s
electrical conductivity (323.15 K, x1 = 0.25): 0.238 S/m
viscosity (323.15 K, x1 = 0.25): 60.6 mPa·s
electrical conductivity (333.15 K, x1 = 0.25): 0.291 S/m
viscosity (333.15 K, x1 = 0.25): 42 mPa·s
electrical conductivity (343.15 K, x1 = 0.25): 0.352 S/m
viscosity (343.15 K, x1 = 0.25): 29.7 mPa·s
electrical conductivity (353.15 K, x1 = 0.25): 0.422 S/m
viscosity (353.15 K, x1 = 0.25): 21.5 mPa·s

[Cl-].c1ccc(C[P+](c2ccccc2)(c2ccccc2)c2ccccc2)cc1 + OCCO
electrical conductivity (303.15 K, x1 = 0.083): 0.241 S/m
viscosity (303.15 K, x1 = 0.083): 43.7 mPa·s
electrical conductivity (323.15 K, x1 = 0.083): 0.365 S/m
viscosity (323.15 K, x1 = 0.083): 24.2 mPa·s
electrical conductivity (333.15 K, x1 = 0.083): 0.441 S/m
viscosity (333.15 K, x1 = 0.083): 18.4 mPa·s
electrical conductivity (343.15 K, x1 = 0.083): 0.527 S/m
viscosity (343.15 K, x1 = 0.083): 14.3 mPa·s
electrical conductivity (353.15 K, x1 = 0.083): 0.623 S/m
viscosity (353.15 K, x1 = 0.083): 11.3 mPa·s

C[P+](c1ccccc1)(c1ccccc1)c1ccccc1.[Br-] + OCCOCCO
electrical conductivity (293.15 K, x2 = 0.8): 0.0618 S/m
viscosity (293.15 K, x2 = 0.8): 141 mPa·s
electrical conductivity (303.15 K, x2 = 0.8): 0.0986 S/m
viscosity (303.15 K, x2 = 0.8): 103 mPa·s
electrical conductivity (313.15 K, x2 = 0.8): 0.132 S/m
viscosity (313.15 K, x2 = 0.8): 60.6 mPa·s
electrical conductivity (323.15 K, x2 = 0.8): 0.18 S/m
viscosity (323.15 K, x2 = 0.8): 38.7 mPa·s
electrical conductivity (333.15 K, x2 = 0.8): 0.258 S/m
viscosity (333.15 K, x2 = 0.8): 27 mPa·s
electrical conductivity (343.15 K, x2 = 0.8): 0.294 S/m
viscosity (343.15 K, x2 = 0.8): 20.4 mPa·s
electrical conductivity (353.15 K, x2 = 0.8): 0.337 S/m
viscosity (353.15 K, x2 = 0.8): 18.3 mPa·s

[Cl-].c1ccc(C[P+](c2ccccc2)(c2ccccc2)c2ccccc2)cc1 + OCCOCCO
electrical conductivity (293.15 K, x2 = 0.875): 0.0466 S/m
electrical conductivity (303.15 K, x2 = 0.875): 0.0706 S/m
viscosity (303.15 K, x2 = 0.875): 102 mPa·s
electrical conductivity (323.15 K, x2 = 0.875): 0.116 S/m
viscosity (323.15 K, x2 = 0.875): 42.3 mPa·s
electrical conductivity (333.15 K, x2 = 0.875): 0.147 S/m
viscosity (333.15 K, x2 = 0.875): 30 mPa·s
electrical conductivity (343.15 K, x2 = 0.875): 0.158 S/m
viscosity (343.15 K, x2 = 0.875): 22.8 mPa·s

Source: a compilation of properties of binary mixtures (doi:10.1016/j.molliq.2018.12.032)
